# Reference: patent US12522583B2, “Benzimidazole derivatives and aza-benzimidazole derivatives as Janus kinase 2 inhibitors and uses thereof” (Dana-Farber Cancer Institute, Inc., priority 2018, dated 2026)
# Key:
# Test in all cases: KINOMEscan
# Type in all cases: binding
# Settings in all cases: read-out: percent control
# CAMK1B = CAMK1B (Homo sapiens (Human), UniProt Q6P2M8)
# Description: (§1) Example 2. In Vitro Kinase Selectivity Profiling of the Compounds of the Present Disclosure
# CDK8 = CDK8 (Homo sapiens (Human), UniProt P49336)
# CDK8, sequence (P49336 whole entry): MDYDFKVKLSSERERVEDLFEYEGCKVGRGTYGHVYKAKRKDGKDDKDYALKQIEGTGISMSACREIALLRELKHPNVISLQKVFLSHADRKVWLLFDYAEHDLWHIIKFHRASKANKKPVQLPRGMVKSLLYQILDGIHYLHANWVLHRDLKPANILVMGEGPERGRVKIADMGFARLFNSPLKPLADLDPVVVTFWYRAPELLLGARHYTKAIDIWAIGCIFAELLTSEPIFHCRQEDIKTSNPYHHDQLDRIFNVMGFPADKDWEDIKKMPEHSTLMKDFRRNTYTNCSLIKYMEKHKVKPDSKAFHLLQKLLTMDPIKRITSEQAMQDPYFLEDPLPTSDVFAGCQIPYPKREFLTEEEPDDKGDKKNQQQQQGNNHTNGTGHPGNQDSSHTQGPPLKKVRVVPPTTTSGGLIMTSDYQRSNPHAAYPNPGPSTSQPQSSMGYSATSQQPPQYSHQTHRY
# Description: as §1
# CLK2 = CLK2 (Homo sapiens (Human), UniProt P49760)
# CLK2, sequence (P49760 whole entry): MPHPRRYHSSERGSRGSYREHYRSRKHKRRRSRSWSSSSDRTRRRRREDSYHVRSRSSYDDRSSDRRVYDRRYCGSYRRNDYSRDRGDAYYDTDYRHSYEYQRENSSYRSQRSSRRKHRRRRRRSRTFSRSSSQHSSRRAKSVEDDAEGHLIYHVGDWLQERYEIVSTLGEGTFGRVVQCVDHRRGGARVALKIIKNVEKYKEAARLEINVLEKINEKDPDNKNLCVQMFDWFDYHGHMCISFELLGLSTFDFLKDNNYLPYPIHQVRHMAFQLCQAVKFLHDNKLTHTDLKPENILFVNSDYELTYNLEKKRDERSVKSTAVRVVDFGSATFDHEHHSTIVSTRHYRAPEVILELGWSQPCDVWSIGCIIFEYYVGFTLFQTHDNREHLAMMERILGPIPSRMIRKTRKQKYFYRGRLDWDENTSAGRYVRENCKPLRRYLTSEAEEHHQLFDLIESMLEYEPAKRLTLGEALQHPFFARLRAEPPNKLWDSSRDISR
# Description: as §1
# CLK4 = CLK4 (Homo sapiens (Human), UniProt Q9HAZ1)
# Description: as §1
# CSK = CSK (Homo sapiens (Human), UniProt P41240)
# CSK, sequence (P41240 whole entry): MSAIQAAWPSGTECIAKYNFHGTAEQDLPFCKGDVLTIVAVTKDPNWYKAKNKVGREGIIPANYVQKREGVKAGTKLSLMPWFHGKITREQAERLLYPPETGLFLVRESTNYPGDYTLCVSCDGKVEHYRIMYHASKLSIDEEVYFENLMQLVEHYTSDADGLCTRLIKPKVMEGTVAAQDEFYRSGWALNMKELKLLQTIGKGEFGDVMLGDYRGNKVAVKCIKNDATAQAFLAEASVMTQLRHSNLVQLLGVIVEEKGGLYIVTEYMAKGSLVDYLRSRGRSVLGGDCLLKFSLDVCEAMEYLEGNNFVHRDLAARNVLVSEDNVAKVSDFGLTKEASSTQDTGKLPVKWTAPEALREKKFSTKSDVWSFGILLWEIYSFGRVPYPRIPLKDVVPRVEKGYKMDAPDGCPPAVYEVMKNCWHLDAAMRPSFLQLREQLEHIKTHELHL
# Description: as §1
# CSNK1E = CSNK1E (Homo sapiens (Human), UniProt P49674)
# Description: as §1
# EPHB4 = EPHB4 (Homo sapiens (Human), UniProt P54760)
# Description: as §1
# FER = FER (Homo sapiens (Human), UniProt P16591)
# FER, sequence (P16591 whole entry): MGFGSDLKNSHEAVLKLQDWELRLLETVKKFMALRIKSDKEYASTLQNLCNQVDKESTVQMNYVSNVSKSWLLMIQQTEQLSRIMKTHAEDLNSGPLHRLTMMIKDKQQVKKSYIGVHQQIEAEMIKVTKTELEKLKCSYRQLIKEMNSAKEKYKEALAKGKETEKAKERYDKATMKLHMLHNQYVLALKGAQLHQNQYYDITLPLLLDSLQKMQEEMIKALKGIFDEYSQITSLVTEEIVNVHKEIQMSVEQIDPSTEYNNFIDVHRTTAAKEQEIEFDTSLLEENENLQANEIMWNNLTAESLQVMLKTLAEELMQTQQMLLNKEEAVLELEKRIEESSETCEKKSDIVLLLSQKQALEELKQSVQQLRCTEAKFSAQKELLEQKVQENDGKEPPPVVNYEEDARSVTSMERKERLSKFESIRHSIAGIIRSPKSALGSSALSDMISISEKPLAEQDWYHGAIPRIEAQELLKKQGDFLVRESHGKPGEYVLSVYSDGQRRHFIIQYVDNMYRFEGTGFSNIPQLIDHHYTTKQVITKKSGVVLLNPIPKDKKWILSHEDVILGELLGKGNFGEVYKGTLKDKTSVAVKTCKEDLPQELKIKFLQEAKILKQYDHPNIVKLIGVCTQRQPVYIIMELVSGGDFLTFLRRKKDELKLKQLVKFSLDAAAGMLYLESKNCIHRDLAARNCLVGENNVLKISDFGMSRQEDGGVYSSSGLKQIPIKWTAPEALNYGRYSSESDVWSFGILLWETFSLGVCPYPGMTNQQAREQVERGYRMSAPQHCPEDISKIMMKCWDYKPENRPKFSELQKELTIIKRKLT
# Description: as §1
# FLT4 = FLT4 (Homo sapiens (Human), UniProt P35916)
# Description: as §1
# IRAK3 = IRAK3 (Homo sapiens (Human), UniProt Q9Y616)
# IRAK3, sequence (Q9Y616 whole entry): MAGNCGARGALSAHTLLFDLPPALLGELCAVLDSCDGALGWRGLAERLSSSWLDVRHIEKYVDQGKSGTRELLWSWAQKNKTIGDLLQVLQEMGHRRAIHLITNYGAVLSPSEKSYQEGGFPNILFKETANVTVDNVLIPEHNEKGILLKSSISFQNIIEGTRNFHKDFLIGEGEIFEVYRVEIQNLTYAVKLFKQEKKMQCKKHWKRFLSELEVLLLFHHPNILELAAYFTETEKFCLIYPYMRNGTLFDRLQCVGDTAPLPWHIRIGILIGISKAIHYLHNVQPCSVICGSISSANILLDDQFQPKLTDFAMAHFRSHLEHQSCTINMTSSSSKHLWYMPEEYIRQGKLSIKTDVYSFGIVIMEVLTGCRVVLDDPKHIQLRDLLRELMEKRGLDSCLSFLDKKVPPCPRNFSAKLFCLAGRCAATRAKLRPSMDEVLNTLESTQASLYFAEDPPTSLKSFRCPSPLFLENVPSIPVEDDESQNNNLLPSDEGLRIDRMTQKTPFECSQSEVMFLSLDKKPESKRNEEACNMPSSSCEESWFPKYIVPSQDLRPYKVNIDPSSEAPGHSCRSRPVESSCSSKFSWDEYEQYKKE
# Description: as §1
# IRAK4 = IRAK4 (Homo sapiens (Human), UniProt Q9NWZ3)
# Description: as §1
# ITK = ITK (Homo sapiens (Human), UniProt Q08881)
# Description: as §1
# [1] = molecular target: JAK2(JH1domain-catalytic) (Homo sapiens (Human), UniProt O60674)
# Description: as §1
# JNK3 = JNK3 (Homo sapiens (Human), UniProt P53779)
# Description: as §1
# KIT(L576P) = KIT(L576P) (Homo sapiens (Human), UniProt P10721, L576P)
# Description: as §1
# LATS1 = LATS1 (Homo sapiens (Human), UniProt O95835)
# Description: as §1
# LIMK2 = LIMK2 (Homo sapiens (Human), UniProt P53671)
# Description: as §1
# MAP3K1 = MAP3K1 (Homo sapiens (Human), UniProt Q13233)
# Description: as §1
# MEK2 = MEK2 (Homo sapiens (Human), UniProt P36507)
# Description: as §1
# MET = MET (Homo sapiens (Human), UniProt P08581)
# Description: as §1
# MLCK = MLCK (Homo sapiens (Human), UniProt Q32MK0)
# Description: as §1
# MYO3B = MYO3B (Homo sapiens (Human), UniProt Q8WXR4)
# Description: as §1
# NEK6 = NEK6 (Homo sapiens (Human), UniProt Q9HC98)
# NEK6, sequence (Q9HC98 whole entry): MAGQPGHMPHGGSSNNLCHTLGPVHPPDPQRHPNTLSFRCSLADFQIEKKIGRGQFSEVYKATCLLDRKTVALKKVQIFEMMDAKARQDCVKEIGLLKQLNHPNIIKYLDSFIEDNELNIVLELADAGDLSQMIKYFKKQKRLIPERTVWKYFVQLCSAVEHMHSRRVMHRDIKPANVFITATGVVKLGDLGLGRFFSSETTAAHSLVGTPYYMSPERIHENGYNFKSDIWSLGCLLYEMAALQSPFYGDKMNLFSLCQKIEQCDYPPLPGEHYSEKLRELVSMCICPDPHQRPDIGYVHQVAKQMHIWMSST
# Description: as §1
# PFPK5(P.falciparum) = PFPK5(P.falciparum) (Plasmodium falciparum (isolate 3D7), UniProt P61075)
# Description: as §1
# PHKG2 = PHKG2 (Homo sapiens (Human), UniProt P15735)
# Description: as §1
# PIK3CA(H1047L) = PIK3CA(H1047L) (Homo sapiens (Human), UniProt P42336, H1047L)
# Description: as §1
# PRKCD = PRKCD (Homo sapiens (Human), UniProt Q05655)
# Description: as §1
# PRKCQ = PRKCQ (Homo sapiens (Human), UniProt Q04759)
# Description: as §1
# QSK = QSK (Homo sapiens (Human), UniProt Q9Y2K2)
# QSK, sequence (Q9Y2K2 whole entry): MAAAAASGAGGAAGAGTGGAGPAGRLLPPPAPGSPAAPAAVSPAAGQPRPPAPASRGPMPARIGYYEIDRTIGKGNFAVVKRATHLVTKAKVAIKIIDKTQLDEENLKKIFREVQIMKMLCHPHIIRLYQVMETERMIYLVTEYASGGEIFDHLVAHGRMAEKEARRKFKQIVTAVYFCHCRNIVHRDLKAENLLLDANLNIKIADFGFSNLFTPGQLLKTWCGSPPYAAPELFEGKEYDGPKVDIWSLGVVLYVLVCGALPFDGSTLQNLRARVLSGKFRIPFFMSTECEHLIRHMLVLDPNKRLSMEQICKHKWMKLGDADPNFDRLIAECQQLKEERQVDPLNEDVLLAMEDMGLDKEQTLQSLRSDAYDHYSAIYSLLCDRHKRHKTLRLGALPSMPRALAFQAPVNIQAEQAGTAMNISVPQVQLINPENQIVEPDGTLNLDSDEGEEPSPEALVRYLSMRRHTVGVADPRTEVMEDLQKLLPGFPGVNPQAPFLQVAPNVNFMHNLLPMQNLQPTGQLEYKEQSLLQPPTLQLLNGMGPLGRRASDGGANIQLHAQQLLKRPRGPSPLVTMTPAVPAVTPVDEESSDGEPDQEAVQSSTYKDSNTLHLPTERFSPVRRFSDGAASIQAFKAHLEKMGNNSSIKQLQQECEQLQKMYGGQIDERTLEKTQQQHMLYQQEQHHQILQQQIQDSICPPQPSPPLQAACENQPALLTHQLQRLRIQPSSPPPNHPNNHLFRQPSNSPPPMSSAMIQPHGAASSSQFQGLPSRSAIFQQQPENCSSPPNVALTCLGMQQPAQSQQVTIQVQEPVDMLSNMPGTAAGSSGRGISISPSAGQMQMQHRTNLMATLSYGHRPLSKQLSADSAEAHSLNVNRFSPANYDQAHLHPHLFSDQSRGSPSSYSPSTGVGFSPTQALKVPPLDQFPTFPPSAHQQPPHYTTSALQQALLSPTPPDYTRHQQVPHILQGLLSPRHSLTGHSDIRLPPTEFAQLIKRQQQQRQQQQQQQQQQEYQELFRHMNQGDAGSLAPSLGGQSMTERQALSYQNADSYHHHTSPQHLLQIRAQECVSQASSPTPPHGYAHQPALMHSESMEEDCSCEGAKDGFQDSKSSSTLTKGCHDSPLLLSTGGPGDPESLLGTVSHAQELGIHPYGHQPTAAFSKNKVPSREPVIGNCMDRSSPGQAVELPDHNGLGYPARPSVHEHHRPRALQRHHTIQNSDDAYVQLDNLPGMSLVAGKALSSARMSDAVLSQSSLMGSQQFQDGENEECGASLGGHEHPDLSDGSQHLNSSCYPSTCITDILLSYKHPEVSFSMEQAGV
# Description: as §1
# RIOK1 = RIOK1 (Homo sapiens (Human), UniProt Q9BRS2)
# Description: as §1
# RIPK5 = RIPK5 (Homo sapiens (Human), UniProt Q6XUX3)
# Description: as §1
# [2] = molecular target: RSK1(Kin.Dom.1-N-terminal) (Homo sapiens (Human), UniProt Q15418)
# RSK1(Kin.Dom.1-N-terminal), sequence (Q15418 62-321 limits assumed): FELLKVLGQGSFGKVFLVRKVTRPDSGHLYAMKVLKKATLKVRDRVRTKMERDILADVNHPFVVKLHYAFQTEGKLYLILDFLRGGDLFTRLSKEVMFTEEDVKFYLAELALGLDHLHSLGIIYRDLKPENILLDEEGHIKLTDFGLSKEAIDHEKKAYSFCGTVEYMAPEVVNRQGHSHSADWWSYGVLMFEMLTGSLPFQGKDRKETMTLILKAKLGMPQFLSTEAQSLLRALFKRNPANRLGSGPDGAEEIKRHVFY
# Description: as §1
# [3] = molecular target: RSK4(Kin.Dom.2-C-terminal) (Homo sapiens (Human), UniProt Q9UK32)
# RSK4(Kin.Dom.2-C-terminal), sequence (Q9UK32 426-683 limits assumed): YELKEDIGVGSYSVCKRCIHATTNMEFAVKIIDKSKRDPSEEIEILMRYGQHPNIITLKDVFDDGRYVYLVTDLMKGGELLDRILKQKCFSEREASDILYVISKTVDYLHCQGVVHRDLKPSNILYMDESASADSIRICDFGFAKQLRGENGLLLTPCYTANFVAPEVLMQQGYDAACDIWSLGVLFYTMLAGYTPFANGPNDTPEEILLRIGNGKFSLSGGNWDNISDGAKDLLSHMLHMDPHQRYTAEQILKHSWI
# Description: as §1
# SLK = SLK (Homo sapiens (Human), UniProt Q9H2G2)
# Description: as §1
# SRPK1 = SRPK1 (Homo sapiens (Human), UniProt Q96SB4)
# Description: as §1
# TBK1 = TBK1 (Homo sapiens (Human), UniProt Q9UHD2)
# Description: as §1
# TEC = TEC (Homo sapiens (Human), UniProt P42680)
# Description: as §1
# TLK2 = TLK2 (Homo sapiens (Human), UniProt Q86UE8)
# Description: as §1
# TRKC = TRKC (Homo sapiens (Human), UniProt Q16288)
# Description: as §1
# ULK1 = ULK1 (Homo sapiens (Human), UniProt O75385)
# Description: as §1
# VRK2 = VRK2 (Homo sapiens (Human), UniProt Q86Y07)
# Description: as §1
structure (smiles),measurement,setting,value
CCN1CCN(Cc2ccc(Nc3nc4ccc(Oc5ccnc(NC(C)=O)c5)cc4n3C)cc2C(F)(F)F)CC1 [Compound I-2],remaining binding at 1 µM,CAMK1B,50%
same,remaining binding at 1 µM,CDK8,17%
same,remaining binding at 1 µM,CLK2,64%
same,remaining binding at 1 µM,CLK4,100%
same,remaining binding at 1 µM,CSK,63%
same,remaining binding at 1 µM,CSNK1E,90%
same,remaining binding at 1 µM,EPHB4,100%
same,remaining binding at 1 µM,FER,91%
same,remaining binding at 1 µM,FLT4,0.5%
same,remaining binding at 1 µM,IRAK3,91%
same,remaining binding at 1 µM,IRAK4,81%
same,remaining binding at 1 µM,ITK,97%
same,remaining binding at 1 µM,[1],16%
same,remaining binding at 1 µM,JNK3,100%
same,remaining binding at 1 µM,KIT(L576P),0.2%
same,remaining binding at 1 µM,LATS1,42%
same,remaining binding at 1 µM,LIMK2,100%
same,remaining binding at 1 µM,MAP3K1,77%
same,remaining binding at 1 µM,MEK2,77%
same,remaining binding at 1 µM,MET,43%
same,remaining binding at 1 µM,MLCK,100%
same,remaining binding at 1 µM,MYO3B,87%
same,remaining binding at 1 µM,NEK6,93%
same,remaining binding at 1 µM,PFPK5(P.falciparum),100%
same,remaining binding at 1 µM,PHKG2,85%
same,remaining binding at 1 µM,PIK3CA(H1047L),73%
same,remaining binding at 1 µM,PRKCD,92%
same,remaining binding at 1 µM,PRKCQ,67%
same,remaining binding at 1 µM,QSK,60%
same,remaining binding at 1 µM,RIOK1,100%
same,remaining binding at 1 µM,RIPK5,69%
same,remaining binding at 1 µM,[2],100%
same,remaining binding at 1 µM,[3],86%
same,remaining binding at 1 µM,SLK,81%
same,remaining binding at 1 µM,SRPK1,50%
same,remaining binding at 1 µM,TBK1,73%
same,remaining binding at 1 µM,TEC,78%
same,remaining binding at 1 µM,TLK2,98%
same,remaining binding at 1 µM,TRKC,44%
same,remaining binding at 1 µM,ULK1,100%
same,remaining binding at 1 µM,VRK2,54%
"CCN1CCN(Cc2ccc(Nc3nc4ccc(Oc5ccnc(NC(C)=O)c5)c(C)c4n3C)cc2C(F)(F)F)CC1 [Compound I-6, N-(4-(2-(4-((4-ethylpiperazin-1-yl)methyl)-3-(trifluoromethyl)phenylamino)-1,7-dimethyl-1H-benzo[d]imidazol-6-yloxy)pyridin-2-yl)acetamide]",remaining binding at 1 µM,CAMK1B,43%
same,remaining binding at 1 µM,CDK8,10%
same,remaining binding at 1 µM,CLK2,91%
same,remaining binding at 1 µM,CLK4,81%
same,remaining binding at 1 µM,CSK,87%
same,remaining binding at 1 µM,CSNK1E,66%
same,remaining binding at 1 µM,EPHB4,90%
same,remaining binding at 1 µM,FER,100%
same,remaining binding at 1 µM,FLT4,0.7%
same,remaining binding at 1 µM,IRAK3,91%
same,remaining binding at 1 µM,IRAK4,98%
same,remaining binding at 1 µM,ITK,98%
same,remaining binding at 1 µM,[1],29%
same,remaining binding at 1 µM,JNK3,77%
same,remaining binding at 1 µM,KIT(L576P),0%
same,remaining binding at 1 µM,LATS1,95%
same,remaining binding at 1 µM,LIMK2,88%
same,remaining binding at 1 µM,MAP3K1,86%
same,remaining binding at 1 µM,MEK2,100%
same,remaining binding at 1 µM,MET,40%
same,remaining binding at 1 µM,MLCK,97%
same,remaining binding at 1 µM,MYO3B,89%
same,remaining binding at 1 µM,NEK6,99%
same,remaining binding at 1 µM,PFPK5(P.falciparum),91%
same,remaining binding at 1 µM,PHKG2,100%
same,remaining binding at 1 µM,PIK3CA(H1047L),85%
same,remaining binding at 1 µM,PRKCD,89%
same,remaining binding at 1 µM,PRKCQ,97%
same,remaining binding at 1 µM,QSK,85%
same,remaining binding at 1 µM,RIOK1,100%
same,remaining binding at 1 µM,RIPK5,61%
same,remaining binding at 1 µM,[2],99%
same,remaining binding at 1 µM,[3],97%
same,remaining binding at 1 µM,SLK,55%
same,remaining binding at 1 µM,SRPK1,83%
same,remaining binding at 1 µM,TBK1,100%
same,remaining binding at 1 µM,TEC,100%
same,remaining binding at 1 µM,TLK2,97%
same,remaining binding at 1 µM,TRKC,3.4%
same,remaining binding at 1 µM,ULK1,56%
same,remaining binding at 1 µM,VRK2,100%
